Source: patent publication US20050004084A1, “Aspirin-containing trasdermal pharmaceutical composition for the treatment of calcification” (priority 2001, published 2005)

Experiments:
[1] = Examination of the metabolism of acetylsalicylic acid: ASA and SA in plasma by HPLC after gel applied onto skin; type: in vivo, New Zealand giant white rabbits; settings: for concentration at 0 h / concentration at 0.25 h / concentration at 0.5 h / concentration at 0.75 h / concentration at 0.75 hour / concentration at 1 h / concentration at 1.5 h / concentration at 2 h / concentration at 3 h / concentration at 4 h: pH 6.5, Salicylic acid and acetysalicylic acid contents of blood samples
Procedure: The tests were performed on 6 week old male New Zealand giant white rabbits. […] The hair was shaved off from the backs of the rabbits, and 0.6 g of a gel with the following composition was applied onto the skin:
Blood samples were taken periodically as indicated in Table 1 from the jugular veins of the animals, the samples were centrifuged to separate the plasma, and the acetylsalicylic acid (ASA) and salicylic acid (SA) contents of the samples were measured by HPLC. The centrifuged plasma was stored at −22° C. until the time of analysis in order to avoid any ex vivo metabolism due to the presence of esterases in the plasma.
The above test was repeated on the same animals with the difference that 0.01 g of sodium carbonate was also added to the gel and the gel was buffered to pH 6.5.

[2] = Urine analyses on rabbits kept on specific calcium-rich diet; type: in vivo
Procedure: From the data of Table 2 it appears that the amount of acetylsalicylic acid present in the blood of the animals stabilized after a short induction period. […] This test was performed on healthy animals, where no dissolution of calcification and no formation of calcium acetylsalicylate due to the dissolution took place.

[3] = male, New Zealand giant white, rabbit, in vivo, 0 h, pH 6.5
[4] = male, New Zealand giant white, rabbit, in vivo, 0.75 h, pH 6.5
[5] = male, New Zealand giant white, rabbit, in vivo, 0.75 hour, pH 6.5
[6] = male, New Zealand giant white, rabbit, in vivo, Salicylic acid and acetysalicylic acid contents of blood samples
[7] = male, New Zealand giant white, rabbit, in vivo

Salicylic acid and acetysalicylic acid contents of blood samples [1, 3]	Salicylic acid and acetysalicylic acid contents of blood samples [1, 4]	Salicylic acid and acetysalicylic acid contents of blood samples [1, 5]	concentration at 0.75 hours [1, 6]	concentration at 0 h [1, 7]	concentration at 0.25 h [1, 7]	concentration at 0.5 h [1, 7]	concentration at 0.75 h [1, 7]	concentration at 0.75 hour [1, 7]	concentration at 1 h [1, 7]	concentration at 1.5 h [1, 7]	concentration at 2 h [1, 7]	concentration at 3 h [1, 7]	concentration at 4 h [1, 7]	Compound	also measured
0 μg/ml of plasma	2.54 μg/ml of plasma	1.97 μg/ml of plasma	40800 ng/mL	0 ng/mL	900 ng/mL	980 ng/mL	2810 ng/mL	2100 ng/mL	3020 ng/mL	2690 ng/mL	3110 ng/mL	7980 ng/mL	12200 ng/mL	O=C(O)c1ccccc1O [SA, salicylic acid]	Salicylic acid and acetysalicylic acid contents of blood samples ([1]; Rabbit 1, 0 hours, 0.6 g gel without carbonate on skin): BLD; Salicylic acid and acetysalicylic acid contents of blood samples ([1]; Rabbit 2, 0 hours, 0.6 g gel without carbonate on skin): BLD; Salicylic acid and acetysalicylic acid contents of blood samples ([1]; Rabbit 3, 0 hours, 0.6 g gel without carbonate on skin): BLD; Salicylic acid and acetysalicylic acid contents of blood samples ([1]; Rabbit 4, 0 hours, 0.6 g gel without carbonate on skin): BLD; salicylic acid content of the blood samples relative to the acetylsalicylic acid content ([1]; gel without carbonate, Table 1): at least one hundredfold
–	–	–	–	–	–	–	–	–	–	–	–	–	–	calcium acetylsalicylate	excretion / further metabolism [2]: can no longer be metabolized but is excreted from the organism in unchanged form
0 μg/ml of plasma	9.68 μg/ml of plasma	8.84 μg/ml of plasma	115 ng/mL	0 ng/mL	570 ng/mL	5240 ng/mL	9440 ng/mL	7900 ng/mL	7700 ng/mL	7120 ng/mL	6980 ng/mL	5650 ng/mL	4550 ng/mL	CC(=O)Oc1ccccc1C(=O)O [ASA, acetylsalicylic acid]	time within which acetylsalicylic acid metabolizes in the body to salicylic acid and acetic acid [1, 7]: ≤ 15 min; Salicylic acid and acetysalicylic acid contents of blood samples ([1]; male, New Zealand giant white, rabbit, in vivo, 0 hours): 0 μg/ml of plasma; Salicylic acid and acetysalicylic acid contents of blood samples ([1]; male, New Zealand giant white, rabbit, in vivo, 1.75 hours): 0.136 μg/ml of plasma; acetylsalicylic acid remained un-metabolized ([1]; male, New Zealand giant white, rabbit, in vivo, 4 h, pH 6.5): 25%; concentration at 0 hours [1, 6]: 0 ng/mL; concentration at 1 hours [1, 6]: 98 ng/mL; concentration at 1.75 hours [1, 6]: 76 ng/mL; concentration at 2 hours [1, 6]: 163 ng/mL; Salicylic acid and acetysalicylic acid contents of blood samples ([1]; rabbit, in vivo): BLD; metabolism of acetylsalicylic acid (observation) ([1]; rabbit, in vivo, pH 6.5): extreme slow down in the metabolism; start of metabolism of acetylsalicylic acid ([1]; rabbit, in vivo, pH 6.5): third-fourth hour
